Laboratory results reported in the PolyMetriX glass transition set.
± gives the standard deviation of the reports.

glass transition temperature [°C] | SMILES
96.00 | *CCc1ccc(CCNC(=O)CCCCCCCCCC(=O)N*)cc1 (repeat unit)
190.00 | *Oc1ccc(C(=O)c2ccc(Oc3ccc(C(c4ccc(*)cc4)(C(F)(F)F)C(F)(F)F)cc3)cc2)c2ccccc12 (repeat unit)
285.00 | *c1ccc(Oc2ccc(Oc3ccc(N4C(=O)c5ccc(-c6cccc7c6C(=O)N(*)C7=O)cc5C4=O)cc3)cc2)cc1 (repeat unit)
114.00 | *Oc1cccc(NC(=O)c2cccc(C(=O)Nc3ccc(Oc4ccc(C(=O)c5ccc(*)cc5)cc4)cc3)c2)c1 (repeat unit)
140.00 | *c1ccc2c(c1)C(=O)N(c1ccc(OCCOCCOCCOCCOc3ccc(N4C(=O)c5ccc(C(*)(C(F)(F)F)C(F)(F)F)cc5C4=O)cc3)cc1)C2=O (repeat unit)
37.50 | *CC(C)C(C)COC(=O)c1ccc(C(=O)O*)cc1 (repeat unit)
-38.80 | *c1ccc(-c2sc(-c3ccc(-c4cc(SCCCCCCCC)c(*)s4)cc3)cc2SCCCCCCCC)cc1 (repeat unit)
72.40 | */C=C(/*)CCCOC(=O)c1cc(-c2ccc(OC)cc2)ccc1-c1ccc(OC)cc1 (repeat unit)
322.00 | *C(=O)Nc1ccc(C2(c3ccc(N4C(=O)c5ccc(*)cc5C4=O)cc3)CCC(C)CC2)cc1 (repeat unit)
112.00 | *CCN(*)C(=O)C1(c2ccc(Cl)cc2)CCC1 (repeat unit)
262.00 | *c1ccc(Oc2ccc(C(=O)c3ccc(C(=O)c4ccc(Oc5ccc(-c6nc(-c7cccc(-c8nc(*)c(-c9ccccc9)[nH]8)c7)[nH]c6-c6ccccc6)cc5)cc4)cc3)cc2)cc1 (repeat unit)
198.00 | *Oc1ccc(Oc2ccc(C(=O)c3ccc(NC(=O)c4cccc(C(=O)Nc5ccc(C(=O)c6ccc(*)cc6)cc5)c4)cc3)cc2)cc1 (repeat unit)
142.50 | *CC(O)COc1ccc(S(=O)(=O)c2ccc(OCC(O)COc3ccc(S(=O)(=O)c4ccc(O*)c(C)c4)cc3C)cc2)cc1 (repeat unit)
203.00 | *Oc1ccc(S(=O)(=O)c2ccc(Oc3ccc(C(=O)c4cc(I)cc(C(=O)c5ccc(*)cc5)c4)cc3)cc2)cc1 (repeat unit)
192.00 | *Oc1ccc(-c2ccc(-c3ccc(Oc4ccc(C(C)(C)c5ccc(*)cc5)cc4)c(C(F)(F)F)c3)cc2)cc1C(F)(F)F (repeat unit)
112.00 | *c1cccc(NC(=O)CCCCCCCCC(=O)Nc2cccc(S(*)(=O)=O)c2)c1 (repeat unit)
253.00 | *c1c(F)c(F)c(-c2c(F)c(F)c(Oc3ccc(-c4nn(*)c(=O)c5ccccc45)c(F)c3)c(F)c2F)c(F)c1F (repeat unit)
250.00 | *c1ccc2c(c1)C(=O)N(c1cc(C(=O)Nc3cccc4c(NC(=O)c5ccc(C)c(N6C(=O)c7ccc(C(*)(C(F)(F)F)C(F)(F)F)cc7C6=O)c5)cccc34)ccc1C)C2=O (repeat unit)
230.00 | *Nc1ccc(-c2ccc(NC(=O)Cc3cc(CC(*)=O)c(C)cc3C)cc2)cc1 (repeat unit)
116.00 | *CCCCCCNC(=O)c1ccc(C(=O)N*)c(Oc2ccc(Br)cc2)c1 (repeat unit)
22.00 | *CC(CCCCCCOc1ccc(/N=N/c2ccc(OC)cc2)cc1)COC(=O)CCCCC(=O)O* (repeat unit)
78.00 | *Nc1ccc(Cc2ccc(NC(=O)NCCCCCCNC(*)=O)cc2)cc1 (repeat unit)
119.00 | *Oc1ccc(C(C)(CC)c2ccc(OC(*)=O)c(C)c2)cc1C (repeat unit)
341.00 | *c1cccc(N2C(=O)c3ccc(-c4cccc5c4C(=O)N(*)C5=O)cc3C2=O)c1 (repeat unit)
102.00 | *CC(*)C(=O)OCCN(CC)c1ccc(/N=N/c2ccc([N+](=O)[O-])cc2)cc1 (repeat unit)
307.00 | *C(=O)Nc1ccc(NC(=O)c2ccc3c(c2)C(=O)N(c2ccc(Oc4cccc5c(N6C(=O)c7ccc(*)cc7C6=O)cccc45)cc2)C3=O)cc1 (repeat unit)
197.00 | *CC(OCCCC)C1(C)C(=O)OC(=O)C1(*)C (repeat unit)

glass transition temperature [°C] | SMILES
45.00 | *CCCCCCCCCCNC(=O)CCCCC(=O)N* (repeat unit)
56.50 | *Oc1ccc(C(C)(C)c2ccc(OC(=O)OCCCCOC(*)=O)cc2)cc1 (repeat unit)
270.00 | *c1ccc(OC(=O)c2cccc(C(=O)Oc3ccc(C4(*)C(=O)Nc5c(Cl)cc(Cl)cc54)cc3)c2)cc1 (repeat unit)
400.00 | *Oc1ccc(C2(c3ccc(OC(=O)c4ccc(C(*)=O)cc4)cc3)c3ccccc3C(=O)c3ccccc32)cc1 (repeat unit)
180.00 | *c1ccc2c(c1)C(=O)N(c1ccc(Oc3cccc(-c4cc(-c5ccccc5)cc(-c5cccc(Oc6ccc(N7C(=O)c8ccc(C(*)(C(F)(F)F)C(F)(F)F)cc8C7=O)cc6)c5)n4)c3)cc1)C2=O (repeat unit)
150.00 | *CC(O)CN(*)c1cc(C)c(/N=N/c2ccc(Cl)cc2)c(C)c1 (repeat unit)
101.00 | *CC(*)(C)C(=O)Oc1ccc([N+](=O)[O-])c(C)c1 (repeat unit)
29.00 | *CC(*)C(=O)OCCCCCCCCCCOc1cnc(-c2ccc(OC(=O)C3COC(C)(C)O3)cc2)nc1 (repeat unit)
47.00 | *CC(*)(C)C(=O)OCCC(F)(F)C(F)(F)C(F)(F)C(F)(F)C(F)(F)C(F)(F)C(F)(F)C(F)(F)F (repeat unit)
-50.00 | *O[Si](*)(C)CCCCCCOC(=O)c1cc(OC(=O)c2ccc(OCCOCCOCCOCCOCCOCCOC)cc2)ccc1OC(=O)c1ccc(OCCOCCOCCOCCOCCOCCOC)cc1 (repeat unit)
293.00 | *c1cccc(C(c2ccccc2)(c2cccc(N3C(=O)c4ccc(Oc5ccc6c(c5)C(=O)N(*)C6=O)cc4C3=O)c2)C(F)(F)F)c1 (repeat unit)
252.20 | *c1ccc(OC(=O)Oc2ccc(C3(*)OC(=O)c4ccccc43)cc2)cc1 (repeat unit)
20.70 | *O[Si](*)(C)CCCCCCCCCCC(=O)Oc1ccc(C(=O)Oc2ccc(OC(=O)CCCCC(=O)OC3CC(C)CCC3C(C)C)cc2)cc1 (repeat unit)
67.00 | *Oc1ccc(CC(NC(=O)CCc2ccc(OC(=O)CCC(*)=O)cc2)C(=O)OCCCC)cc1 (repeat unit)
138.80 | *CCN(CCOC(=O)OCc1ccc(COC(=O)O*)cc1)c1ccc(/N=N/c2ccc([N+](=O)[O-])cc2)cc1 (repeat unit)
165.00 | *Oc1ccc(-c2ccc(OC(=O)c3cc(/N=N/c4ccc(OCC)cc4)ccc3-c3ccc(/N=N/c4ccc(OCC)cc4)cc3C(*)=O)cc2)cc1 (repeat unit)
62.40 | *CCC1C(=O)N(CCCCCCCCCCCCCC)C(=O)C1* (repeat unit)
77.00 | *CC1CCC(COC(=O)C2CCC(C(=O)O*)CC2)CC1 (repeat unit)
-1.00 | *C/C=C/C[Si](*)(C)CCCOc1ccc2ccccc2c1 (repeat unit)
122.00 | *CCCCCC(=O)Oc1ccc(C2(c3ccc(OC(=O)c4ccc5c(c4)C(=O)N(*)C5=O)cc3)CCCCC2)cc1 (repeat unit)
112.00 | *CCCCCOc1ccc(OC(=O)c2ccc(C(=O)Oc3ccc(O*)cc3)cc2)cc1 (repeat unit)
178.00 | *C(=O)NCCN(CCNC(=O)c1ccc(N2C(=O)c3ccc(*)cc3C2=O)cc1)c1ccc(/C=C/c2ccc([N+](=O)[O-])cc2)cc1 (repeat unit)
108.00 | *CCCCCCNC(=O)c1ccc(C(=O)N*)c(Oc2ccccc2)c1 (repeat unit)
45.00 | *CC(*)(C)C(=O)OCCCCCCOc1ccc(C(=O)Oc2ccc(C)cc2)cc1 (repeat unit)
-65.00 | *O[Si](C)(C)O[Si](C)(C)O[Si](C)(C)O[Si](C)(C)O[Si](C)(C)c1ccc(Oc2ccc([Si](*)(C)C)cc2)cc1 (repeat unit)
102.00 | *CC(*)(F)C(=O)OC(C(F)(F)F)C(F)(F)F (repeat unit)
172.00 | *Oc1ccc(C2(c3ccc(OC(=O)OC4C(C)(C)C(OC(*)=O)C4(C)C)cc3)CCC(C(C)(C)C)CC2)cc1 (repeat unit)

SMILES | glass transition temperature [°C]
*O[Si](*)(C)c1ccc(C)cc1 (repeat unit) | -17.00
*/C=C/CCC* (repeat unit) [Poly(1-pentenylene)] | -100.08 ± 7
*c1cccc(P(=O)(c2ccccc2)c2cccc(N3C(=O)c4ccc(Oc5ccc(C(C)(C)c6ccc(Oc7ccc8c(c7)C(=O)N(*)C8=O)cc6)cc5)cc4C3=O)c2)c1 (repeat unit) | 213.00
*CCCCCCOP(=O)(/N=N/c1ccc(C(=O)c2ccc(/N=N/P(=O)(O*)OC)cc2)cc1)OC (repeat unit) | 31.00
*CCC(C(=O)OC)C(*)C(=O)OC (repeat unit) | 31.20
*c1ccc(Oc2ccc(P(=O)(c3ccccc3)c3ccc(Oc4ccc(-c5nc(-c6ccccc6)[nH]c5*)cc4)cc3)cc2)cc1 (repeat unit) | 318.00
*CC(*)(C)C(=O)OC1CCCCC1C (repeat unit) | 85.00
*CC(*)c1ccc([CH]([Sn]([CH3])([CH3])[CH3])[Sn]([CH3])([CH3])[CH3])cc1 (repeat unit) | 140.00
*c1cccc(P(=O)(c2cccc(-n3c(=O)c4cc5c(=O)n(*)c(=O)c5cc4c3=O)c2)c2cc(C(F)(F)F)cc(C(F)(F)F)c2)c1 (repeat unit) | 281.00
*CC(*)(CCC)C(=O)OC (repeat unit) | 83.50
*C(=O)Nc1ccc(Oc2ccc(NC(=O)c3ccc4c(c3)C(=O)N(c3cccc(P(=O)(c5ccccc5)c5cccc(N6C(=O)c7ccc(*)cc7C6=O)c5)c3)C4=O)cc2)cc1 (repeat unit) | 235.00
*CCCCCCCCC(=O)N* (repeat unit) | 48.00
